Source: publication PMC4109680, “Identification and Preclinical Pharmacology of the γ-Secretase Modulator BMS-869780” (International Journal of Alzheimer's Disease, 2014)

Test system: Aβ1-40 (MEF M146V)
Assay: Aβ1-40 ELISA in MEF dKO cultures cotransfected with APP-CTF and human presenilin-1 M146V allele
Format: cell-based
Method: H4-APPsw cell cultures were maintained on Dulbecco's modified Eagle's medium (DMEM) supplemented with L-glutamine (2 mM), fetal bovine serum (10%), and G418 (100 μg/mL). […] Aβ1-42 and Aβ1-40 assays, and Notch inhibition assays, were carried out as described previously. Mouse embryonic fibroblasts deficient in PS1 and PS2 (MEF dKO) were passaged twice per week in DMEM/F-12 medium, consisting of a 1 : 1 mixture of DMEM and F-12 nutrient mixture supplemented with 10% fetal bovine serum, penicillin, and streptomycin. For expression of human presenilin-1 in MEF dKO cells, the full length human presenilin-1 cDNA open reading frame was cloned between the BamHI and XhoI sites of the vector pcDNA5/FRT (Invitrogen), placing presenilin-1 expression under the control of the CMV promoter. […]
IC50 determinations for Aβ1-42 and Aβ1-40 in H4-APPsw cultures in 384-well format were determined using homogeneous time-resolved fluorescence immunoassays as previously described. […] In other experiments using H4-APPsw cultures, Aβ was quantified by ELISA; for Aβ1-42 the combination of monoclonal antibodies was 26D6 and 565-HRP; for Aβ1-40 it was TSD and 26D6-HRP, and for Aβ1-x it was 4G8 and 26D6-HRP. […] For Aβ in transiently transfected PS1/PS2 dKO fibroblasts, Aβ1-42 was quantified using an ELISA kit (WACO), and Aβ1-40 was quantified by ELISA as described above for H4-APPsw cultures. […]

`COc1cc(Nc2nc3n(n2)CCCC[C@H]3c2ccc(F)cc2)ccc1-n1cnc(Cl)c1` [BMS-869780] was tested, and the IC50 (Homo sapiens, presenilin-1 M146V allele) was 34 nM and the “Aβ1-40 IC50 shift in M146V allele relative to wild type presenilin” value (MEF cultures) was “ca. 3 fold”.
